Measured values: PubChem BioAssay AID276 (DTP/NCI, 2004)
“And” between values parts separate entries of the source, which are not always exact repeats. Identical values can stand only once. Toxic doses and inconclusive results are not listed. The calls were made as follows: active = survival T/C of 150% or more; inactive = T/C below 125% in these data.

Tested on: B6C3F1 mice, Lewis lung carcinoma iv, survival T/C
Experiment: NCI In Vivo Anticancer Drug Screen. Data for tumor model Lewis Lung Carcinoma (intravenous) in B6C3F1 mice
Conditions: endpoint: median survival time, schedule: Q01DX009 (ip), higher = longer survival
Summary of the method: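 T/C ratio derived from survival of compound-treated versus vehicle-treated mice bearing transplantable tumors.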

[1] = dose: 12.5 mg/kg/injection, vehicle: Klucel (hydroxypropylcellulose) (HPC)
[2] = dose: 25.0 mg/kg/injection, vehicle: Klucel (hydroxypropylcellulose) (HPC)
[3] = dose: 50.0 mg/kg/injection, vehicle: water
[4] = dose: 100.0 mg/kg/injection, vehicle: water
[5] = dose: 200.0 mg/kg/injection, vehicle: water
[6] = dose: 6.25 mg/kg/injection, vehicle: water
[7] = dose: 12.5 mg/kg/injection, vehicle: water
[8] = dose: 25.0 mg/kg/injection, vehicle: water
[9] = dose: 1.56 mg/kg/injection, vehicle: saline with Tween-80
[10] = dose: 3.12 mg/kg/injection, vehicle: saline with Tween-80
[11] = dose: 6.25 mg/kg/injection, vehicle: saline with Tween-80
[12] = dose: 12.5 mg/kg/injection, vehicle: saline with Tween-80
[13] = dose: 25.0 mg/kg/injection, vehicle: saline with Tween-80
[14] = dose: 50.0 mg/kg/injection, vehicle: saline with Tween-80
[15] = dose: 100.0 mg/kg/injection, vehicle: saline with Tween-80
[16] = dose: 6.25 mg/kg/injection, vehicle: saline
[17] = dose: 12.5 mg/kg/injection, vehicle: saline
[18] = dose: 25.0 mg/kg/injection, vehicle: saline
[19] = dose: 50.0 mg/kg/injection, vehicle: saline
[20] = dose: 100.0 mg/kg/injection, vehicle: saline
[21] = dose: 200.0 mg/kg/injection, vehicle: saline
[22] = dose: 50.0 mg/kg/injection, vehicle: Klucel (hydroxypropylcellulose) (HPC)
[23] = dose: 100.0 mg/kg/injection, vehicle: Klucel (hydroxypropylcellulose) (HPC)
[24] = dose: 200.0 mg/kg/injection, vehicle: Klucel (hydroxypropylcellulose) (HPC)

Measured: T/C

CN(C)N=Nc1ccccc1
inactive: [1] 108 % of control | [2] 115 % of control

COc1ccc2[nH]c3ccc4cc[n+](CCN5CCC(C6CCN(CC[n+]7ccc8ccc9[nH]c%10ccc(OC)cc%10c9c8c7)CC6)CC5)cc4c3c2c1
inactive: dose: 6.25 mg/kg/injection, vehicle: Klucel (hydroxypropylcellulose) (HPC) 106 % of control | [1] 91 % of control and 103 % of control | [2] 99 % of control

BrCCC1(CCBr)CCCCC1
inactive: [3] 104 % of control | [4] 103 % of control | [5] 98 % of control | dose: 400.0 mg/kg/injection, vehicle: water 96 % of control

Nc1cc(Cl)c2[nH]cnc2n1
inactive: [6] 94 % of control | [7] 98 % of control | [8] 100 % of control | [3] 107 % of control | [4] 109 % of control | [5] 100 % of control

O/N=C/c1ccccc1O.O/N=C/c1ccccc1O.[Cu]
inactive: [9] 113 % of control | [10] 100 % of control | [11] 104 % of control | [12] 96 % of control | [13] 104 % of control | [14] 96 % of control

O=[N+]([O-])c1ccc(-n2[nH]nnc2=S)cc1
inactive: [12] 101 % of control | [13] 96 % of control | [14] 103 % of control | [15] 95 % of control | dose: 200.0 mg/kg/injection, vehicle: saline with Tween-80 94 % of control

COc1ccc(-c2csc(=[N+]3CCCCC3)s2)cc1
inactive: dose: 1.56 mg/kg/injection, vehicle: water 108 % of control | dose: 3.12 mg/kg/injection, vehicle: water 104 % of control | [6] 104 % of control | [7] 94 % of control | [8] 95 % of control

CCCCc1ccc2nc(NC(=O)OC)[nH]c2c1
inactive: [11] 111 % of control | [12] 97 % of control | [13] 95 % of control | [14] 95 % of control | [15] 111 % of control

[N-]=[N+]=[N-]
inactive: dose: 1.5 mg/kg/injection, vehicle: saline 96 % of control | dose: 3.0 mg/kg/injection, vehicle: saline 98 % of control | dose: 6.0 mg/kg/injection, vehicle: saline 106 % of control | dose: 12.0 mg/kg/injection, vehicle: saline 95 % of control

NC(=O)c1ccc(N)nc1
inactive: dose: 0.5 mg/kg/injection, vehicle: saline 115 % of control | dose: 1.0 mg/kg/injection, vehicle: saline 115 % of control

ClCCCN1CCCCC1CCl (configuration not stated)
inactive: dose: 0.78 mg/kg/injection, vehicle: saline 101 % of control | dose: 1.56 mg/kg/injection, vehicle: saline 108 % of control | dose: 3.12 mg/kg/injection, vehicle: saline 98 % of control | [16] 101 % of control | [17] 121 % of control

NC(=O)/C=C/C(=O)c1c(Cl)cccc1Cl
inactive: dose: 0.79 mg/kg/injection, vehicle: saline with Tween-80 111 % of control | [9] 88 % of control | [10] 117 % of control | [11] 103 % of control | [12] 108 % of control

Cc1cc(NCCN(C(C)C)C(C)C)nc(/N=C(\N)Nc2ccc(Cl)c(C(F)(F)F)c2)n1
inactive: dose: 1.25 mg/kg/injection, vehicle: Klucel (hydroxypropylcellulose) (HPC) 93 % of control and 95 % of control | dose: 2.5 mg/kg/injection, vehicle: Klucel (hydroxypropylcellulose) (HPC) 95 % of control and 100 % of control | dose: 5.0 mg/kg/injection, vehicle: Klucel (hydroxypropylcellulose) (HPC) 94 % of control and 96 % of control | dose: 10.0 mg/kg/injection, vehicle: Klucel (hydroxypropylcellulose) (HPC) 97 % of control and 117 % of control | dose: 20.0 mg/kg/injection, vehicle: Klucel (hydroxypropylcellulose) (HPC) 94 % of control and 112 % of control

O=[N+]([O-])c1nccn1CC(O)CO (configuration not stated)
inactive: [17] 100 % of control | [18] 105 % of control | [19] 104 % of control | [20] 102 % of control | [21] 106 % of control | dose: 400.0 mg/kg/injection, vehicle: saline 107 % of control

Cn1cc(C2NC(=O)c3ccccc3N2)c2ccccc21 (configuration not stated)
inactive: [2] 104 % of control | [22] 105 % of control | [23] 100 % of control | [24] 104 % of control

CN(C)C(=O)SC1=C(c2c(Cl)cccc2Cl)C(=O)c2ccccc21
inactive: [2] 102 % of control | [22] 110 % of control | [23] 105 % of control | [24] 108 % of control

O=CC(S)CO (configuration not stated)
inactive: [17] 105 % of control and 107 % of control | [18] 95 % of control and 107 % of control | [19] 101 % of control and 102 % of control | [20] 101 % of control and 112 % of control | [21] 96 % of control and 102 % of control

Cn1cnc([N+](=O)[O-])c1Sc1nc(N)nc2c1ncn2C1OC(CO)C(O)C1O (configuration not stated)
inactive: dose: 1.56 mg/kg/injection, vehicle: suspension in saline 105 % of control | dose: 3.12 mg/kg/injection, vehicle: suspension in saline 100 % of control | dose: 6.25 mg/kg/injection, vehicle: suspension in saline 105 % of control

C[CH2][Pb]([CH2]C)([CH2]C)[O]C(=O)COc1ccccc1
inactive: dose: 0.08 mg/kg/injection, vehicle: saline with Tween-80 107 % of control | dose: 0.15 mg/kg/injection, vehicle: saline with Tween-80 99 % of control | dose: 0.3 mg/kg/injection, vehicle: saline with Tween-80 99 % of control | dose: 0.6 mg/kg/injection, vehicle: saline with Tween-80 109 % of control | dose: 1.2 mg/kg/injection, vehicle: saline with Tween-80 108 % of control

O=C1c2cccc3cc([N+](=O)[O-])cc(c23)C(=O)N1CCN1CCCC1
inactive: dose: 3.0 mg/kg/injection, vehicle: saline with Tween-80 106 % of control | dose: 6.0 mg/kg/injection, vehicle: saline with Tween-80 115 % of control

COc1ccc2nonc2c1
inactive: [11] 107 % of control and 112 % of control | [12] 102 % of control and 118 % of control | [13] 101 % of control and 107 % of control | [14] 106 % of control and 109 % of control

Cc1nc(N)nc(N)c1-c1ccc(Cl)c(Cl)c1
inactive: dose: 0.32 mg/kg/injection, vehicle: saline 97 % of control | dose: 0.63 mg/kg/injection, vehicle: saline 109 % of control | dose: 1.25 mg/kg/injection, vehicle: saline 120 % of control | dose: 2.5 mg/kg/injection, vehicle: saline 113 % of control | dose: 5.0 mg/kg/injection, vehicle: saline 124 % of control | dose: 10.0 mg/kg/injection, vehicle: saline 112 % of control

CC(=O)CC(=O)CCC(=O)O
inactive: [18] 98 % of control | [19] 103 % of control | [20] 102 % of control | [21] 105 % of control

CC1(C)COCN1COCCOCN1COCC1(C)C
inactive: [16] 103 % of control | [17] 108 % of control | [18] 97 % of control | [19] 104 % of control | [20] 107 % of control

CCCCC(=O)OCC1OC(n2cnc3c(=S)nc[nH]c32)C(OC(=O)CCCC)C1OC(=O)CCCC (configuration not stated)
inactive: [12] 99 % of control | [13] 100 % of control
